Data as given in ChEMBL document CHEMBL5724796, “Tm Shift (DSF) assay results for EUbOPEN Chemogenomics Library” (2024).
Residues, ends and D or L forms follow the SMILES beside them.

Legend:
Peregrin (Homo sapiens) = target: T1, Peregrin (Homo sapiens) (UniProt P55201); conditions: Compound concentration 20.0 uM
T1 sequence (whole entry): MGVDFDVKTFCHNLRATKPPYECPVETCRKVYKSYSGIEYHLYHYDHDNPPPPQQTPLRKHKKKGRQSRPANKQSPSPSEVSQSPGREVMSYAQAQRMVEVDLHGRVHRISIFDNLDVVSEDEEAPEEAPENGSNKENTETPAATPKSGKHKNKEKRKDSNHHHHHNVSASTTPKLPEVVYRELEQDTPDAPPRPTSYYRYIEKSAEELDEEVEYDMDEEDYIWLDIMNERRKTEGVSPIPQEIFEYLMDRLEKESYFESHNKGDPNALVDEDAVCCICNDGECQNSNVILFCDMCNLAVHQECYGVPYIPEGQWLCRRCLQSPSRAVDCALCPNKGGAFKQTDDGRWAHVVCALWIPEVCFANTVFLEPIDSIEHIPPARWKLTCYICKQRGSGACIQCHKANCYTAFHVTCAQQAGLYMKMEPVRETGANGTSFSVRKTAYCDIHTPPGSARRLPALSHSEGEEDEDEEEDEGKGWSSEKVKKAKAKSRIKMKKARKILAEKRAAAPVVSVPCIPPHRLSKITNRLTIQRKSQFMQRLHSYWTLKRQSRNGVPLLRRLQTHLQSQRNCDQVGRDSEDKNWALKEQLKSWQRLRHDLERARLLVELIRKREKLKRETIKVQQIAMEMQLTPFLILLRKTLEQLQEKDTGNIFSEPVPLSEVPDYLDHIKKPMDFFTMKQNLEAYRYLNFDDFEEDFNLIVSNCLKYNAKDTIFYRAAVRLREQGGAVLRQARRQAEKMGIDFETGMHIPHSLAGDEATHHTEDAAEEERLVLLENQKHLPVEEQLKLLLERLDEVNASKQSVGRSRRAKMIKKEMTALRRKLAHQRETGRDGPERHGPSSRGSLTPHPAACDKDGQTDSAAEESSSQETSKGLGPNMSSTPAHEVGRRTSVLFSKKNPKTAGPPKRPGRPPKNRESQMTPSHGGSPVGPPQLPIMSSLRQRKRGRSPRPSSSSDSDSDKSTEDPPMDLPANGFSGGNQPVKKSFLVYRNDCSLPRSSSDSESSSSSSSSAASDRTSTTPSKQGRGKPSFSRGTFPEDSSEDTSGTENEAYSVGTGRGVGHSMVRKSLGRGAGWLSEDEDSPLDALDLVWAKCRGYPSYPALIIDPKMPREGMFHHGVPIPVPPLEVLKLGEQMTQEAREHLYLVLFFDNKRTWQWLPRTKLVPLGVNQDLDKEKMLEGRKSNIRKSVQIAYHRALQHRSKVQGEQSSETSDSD

[1] = target: Fibroblast growth factor receptor 2 (Homo sapiens) (UniProt P21802); conditions: Compound concentration 20.0 uM
Chain of Fibroblast growth factor receptor 2 (Homo sapiens) (P21802 22-821 limits assumed): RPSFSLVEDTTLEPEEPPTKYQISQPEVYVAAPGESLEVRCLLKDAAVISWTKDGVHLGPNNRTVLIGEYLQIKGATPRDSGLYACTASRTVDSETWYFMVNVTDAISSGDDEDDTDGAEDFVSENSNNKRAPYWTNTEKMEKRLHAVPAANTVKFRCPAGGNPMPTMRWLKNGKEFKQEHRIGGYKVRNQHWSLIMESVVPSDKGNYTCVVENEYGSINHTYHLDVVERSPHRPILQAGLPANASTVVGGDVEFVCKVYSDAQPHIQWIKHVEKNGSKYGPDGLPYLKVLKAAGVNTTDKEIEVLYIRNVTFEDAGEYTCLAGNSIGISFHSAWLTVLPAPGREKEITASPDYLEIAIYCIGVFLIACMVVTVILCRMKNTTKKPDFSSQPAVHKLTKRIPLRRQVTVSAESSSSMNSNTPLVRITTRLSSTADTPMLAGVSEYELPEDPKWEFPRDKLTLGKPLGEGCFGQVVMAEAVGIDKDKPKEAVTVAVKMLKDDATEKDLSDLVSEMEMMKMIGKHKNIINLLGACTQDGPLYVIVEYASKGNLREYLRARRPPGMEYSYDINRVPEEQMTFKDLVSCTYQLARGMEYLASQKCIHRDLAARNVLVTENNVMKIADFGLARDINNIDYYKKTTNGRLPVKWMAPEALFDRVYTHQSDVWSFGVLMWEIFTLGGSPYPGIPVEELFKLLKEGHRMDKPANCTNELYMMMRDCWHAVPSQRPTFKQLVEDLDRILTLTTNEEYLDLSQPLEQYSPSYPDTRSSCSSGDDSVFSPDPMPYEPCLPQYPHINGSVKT
Description: Thermal Shift Assay. Domain: start/stop: T457-E768

Row | SMILES | ΔTm (Peregrin (Homo sapiens)) | ΔTm [1]
1 | Cc1cc(/N=N/c2ccc3c(c2)CCC(=O)N3)c(N)cc1O | 1.01 °C | 0.16 °C
2 | CC(C)(C)NS(=O)(=O)c1ccc(NC(=O)[C@H](Cc2ccccc2)NC(=O)c2ccc(F)cc2)cc1 | 0.73 °C | 0.56 °C
3 | Cc1cc(N2C[C@@H](C)N[C@@H](C)C2)ncc1-c1ccc(-c2nc3c(ccn3C)c(=O)[nH]2)cc1 | 2.61 °C | 0.8 °C
4 | N#C[C@@H]1CCCN1C(=O)[C@@H]1CCCN1C(=O)CCCc1ccccc1 | -1.55 °C | 0.84 °C
5 | O=C(NO)c1ccc(CN2CCCc3cc(Cl)ccc32)cc1 | -1.37 °C | 0.45 °C
6 | CC(=O)N[C@@H](Cc1ccc(O)cc1)C(=O)N[C@H](C(=O)N[C@@H](C)C(=O)N[C@H](C=O)CC(=O)O)C(C)C | -1.25 °C | 0.54 °C
7 | C[C@@H](COCCC(=O)N1CCN(c2ncc(C(F)(F)F)cn2)CC1)Nc1cn[nH]c(=O)c1C(F)(F)F | 0.01 °C | 0.24 °C
8 | COc1ccccc1[C@H]1[C@H](C(=O)O)[C@H](c2ccccc2OC)[C@H]1C(=O)Oc1cccc2ccccc12 | 0.27 °C | -0.72 °C
9 | COc1cc(C(=O)N2C[C@H](N)CC[C@@H]2C)cc2nc(-c3cc4cccnc4n3CC3CC3)n(C)c12 | 0.21 °C | 0.33 °C
10 | CCOC(=O)Oc1c(OC)cc(C(=O)O[C@H]2C[C@H]3CN4CCc5c([nH]c6cc(OC)ccc56)[C@@H]4C[C@H]3[C@@H](C(=O)OC)[C@@H]2OC)cc1OC | 2.92 °C | -1.05 °C
11 | NCCOCCOCCNC(=O)Cc1ccc(Nc2nc(NCc3ccc(F)cc3)nc(NCC3CCCCC3)n2)cc1 | 2.13 °C | 0.03 °C
12 | OC[C@H]1O[C@@H](c2ccc(F)c(Cc3cc4ccccc4s3)c2)[C@H](O)[C@@H](O)[C@@H]1O | 1.12 °C | -0.55 °C
13 | N#Cc1ccc(Nc2cnccc2SCc2ccccc2C(=O)O)c2ccccc12 | 1.8 °C | 0.49 °C
14 | CCC[C@H]1CNCc2c1[nH]c(=O)c(C#N)c2N1CCC2(CC1)CC2 | -0.83 °C | 0.92 °C
15 | Cc1c(CN2CCC(Nc3ncnc4sc(CC(F)(F)F)cc34)CC2)ccc2[nH]c(C#N)cc12 | -2.53 °C | 0.11 °C
16 | O=S(=O)(CSc1nnc(Br)n1Cc1ccc(Br)c2ccccc12)Nc1cccnc1 | 1.59 °C | -0.32 °C
17 | Cn1cc(NC(=O)c2cc(F)cc(F)c2)c(C(=O)NC2CCNCC2)n1 | -1.44 °C | 0.66 °C
18 | O=C(NO)c1cccc(C(=O)NCCc2ccccc2)c1 | -0.84 °C | 0.41 °C
19 | CCCCOc1c(OC)cc(C(=O)NCC2(N(C)C)CCOCC2)cc1OC | -1.37 °C | -0.02 °C
20 | COC(=O)[C@H]1[C@H]2C[C@@H]3c4[nH]c5cc(OC)ccc5c4CCN3C[C@H]2C[C@@H](OC(=O)c2cc(OC)c(OC)c(OC)c2)[C@@H]1OC | 0.08 °C | -0.07 °C
21 | CC(C)(C)OC(=O)N1CCN(C(=O)n2cc(-c3ccc(OC(F)(F)F)cc3)nn2)C(Cc2ccccc2)C1 (stereo not drawn) | 0.21 °C | -0.77 °C

Row | SMILES | ΔTm (Peregrin (Homo sapiens)) | ΔTm [1]
22 | Cc1ccc(F)c2cc(C(=O)N[C@@H]3CCC[C@H](N4CC[C@H](N(C)S(C)(=O)=O)C4)C3)[nH]c12 | -0.28 °C | -0.4 °C
23 | CC(C)C(=O)SCCCCCCC(=O)Nc1nc(-c2ccccc2)cs1 | -1.14 °C | 1.03 °C
24 | CN(CCCCCCNc1ccnc2cc(Cl)ccc12)CCCCCCNc1ccnc2cc(Cl)ccc12 | 0.99 °C | 0.43 °C
25 | COc1ccc(CNc2nc(N3CCC[C@H]3CO)ncc2C(=O)NCc2ncccn2)cc1Cl | 0.12 °C | -0.2 °C
26 | COc1cc([C@@H]2Oc3c(O)cc([C@H]4Oc5cc(O)cc(O)c5C(=O)[C@@H]4O)cc3[C@H]2CO)ccc1O | 2.27 °C | -0.46 °C
27 | O=C(c1cccc(-c2ccc(-c3cn(C(=O)N4CCCCC4c4ccccc4)nn3)cc2)c1)N1CCCCC1 (stereo not drawn) | 3.63 °C | 2.55 °C
28 | CCN(c1cc(C#CCN2CCOCC2)cc(C(=O)NCc2c(C)cc(C)[nH]c2=O)c1C)[C@H]1CC[C@H](N(C)CCOC)CC1 | -1.63 °C | 0.42 °C
29 | N[C@H](C(=O)O)[C@H](OCc1cccc(NC(=O)c2ccc(C(F)(F)F)cc2)c1)C(=O)O | 0.9 °C | -0.22 °C
30 | C[C@@H](Oc1ccc(CNC(=O)c2cccnc2Oc2ccc3c(c2)OCO3)c(F)c1)C(=O)O | 3.08 °C | 0.14 °C
31 | CCN(CC)S(=O)(=O)c1cc(Nc2nccc(-c3ccnc(-c4ccc(NC(=O)NC)cc4)c3)n2)ccc1Cl | -7.45 °C | -4.8 °C
32 | O=C(O)[C@@H]1CCCN(C(=O)n2cnc(-c3ccc(-c4cnc(N5CCOCC5)nc4)cc3)n2)[C@H]1c1ccccc1 | -0.92 °C | 0.15 °C
33 | COc1ccc(C(CN(C)C)C2(O)CCCCC2)cc1 (stereo not drawn) | -0.6 °C | 0.29 °C
34 | Cc1nc(-c2cnn(C)c2-c2ccc(C(F)(F)F)cn2)c2c(N3CCC3)ncnn12 | 0.67 °C | 0.06 °C
35 | COc1cc2/c(=N/c3ccc(Br)cc3F)nc[nH]c2cc1OCC1CCN(C)CC1 | -0.84 °C | 5.47 °C
36 | CN(C)CCCN(CC[C@H](N)C(=O)O)C[C@H]1O[C@@H](n2cnc3c(N)ncnc32)[C@H](O)[C@@H]1O | -1.18 °C | -1.19 °C
37 | O=C(O)Cc1ccc(Cc2cc(-c3cccc(Cl)c3)nc(C(F)(F)F)c2)cc1 | -0.4 °C | -0.76 °C
38 | O=C(NCCCOc1ccc2[nH]c(=O)ccc2c1)N(C1CC1)[C@@H]1CCCC[C@H]1O | 1.1 °C | 0.24 °C
39 | CC[C@H](C)[C@H](NC(C)=O)C(=O)N[C@@H](CCC(=O)O)C(=O)N[C@H](C(=O)N[C@H](C=O)CC(=O)O)[C@@H](C)O (Ac-IETD-aldehyde) | -0.66 °C | 0.37 °C
40 | CC(C)(C)OC(=O)NCCCCCN(CCc1ccccc1)C(=O)n1cc(-c2ccc(OC(F)(F)F)cc2)nn1 | 1.14 °C | -1.05 °C
41 | C[C@@H]1CN(c2nccc(Nc3ccc4c(c3)n(CCC(C)(C)O)c(=O)n4C)n2)C[C@H](C)C1(F)F | -0.49 °C | -0.7 °C
42 | CC#C[C@]1(O)CC[C@H]2[C@@H]3CCC4=CC(=O)CCC4=C3[C@@H](c3ccc(N(C)C)cc3)C[C@@]21C | -2.63 °C | 0.14 °C

Row | SMILES | ΔTm (Peregrin (Homo sapiens)) | ΔTm [1]
43 | CC(C)NC(=O)c1ccc(OC(F)F)c(OCC2CC2)c1 | 0.69 °C | 0.29 °C
44 | CC(=O)N[C@@H](Cc1ccc(O)cc1)C(=O)N[C@H](C(=O)N[C@@H](C)C(=O)N[C@@H](CC(=O)O)C(=O)CCl)C(C)C | -1.75 °C | 0.63 °C
45 | COc1cccc(Nc2c(C(N)=O)cnc3c(C)cc(S(=O)(=O)c4cccc(C(=O)N(C)C)c4)cc23)c1 | -1.59 °C | -0.11 °C
46 | CC1=NN(c2ccc(C(=O)O)cc2)C(=O)/C1=C/c1ccc(-c2cc(C)c(C)cc2[N+](=O)[O-])o1 | -1.58 °C | 0.86 °C
47 | CC(C)C[C@@H](C=O)NC(=O)[C@@H](NS(=O)(=O)c1ccc(F)cc1)C(C)C | -1.65 °C | -0.07 °C
48 | O=c1[nH][nH]c(=O)c2cc(OCC3CCCCC3)ccc12 | 2.63 °C | 1.11 °C
49 | O=C(NO)c1ccc(CN(c2cnccn2)c2cnccn2)cc1 | -0.86 °C | -0.14 °C
50 | COc1cccc(OC)c1S(=O)(=O)Nc1noc2cc(Cn3cccn3)cc(OC)c12 | -0.57 °C | -3.46 °C
51 | O=C(NCCCCc1ccccc1)n1c(=O)oc2cc(-c3ccc(F)cc3)ccc21 | 2.4 °C | -0.32 °C
52 | CCCSc1nc2c(c(=O)n1-c1ccccc1)SCC2 | 0.27 °C | 0.36 °C
53 | CC(=O)C(=Cc1cc(O)c(O)c([N+](=O)[O-])c1)C(C)=O | 0.33 °C | -0.23 °C
54 | CCC(NC(=O)C(CC(C)C)NC(=O)OCc1ccccc1)C(=O)C(=O)NCCCN1CCOCC1 (stereo not drawn) | -1.22 °C | 1.24 °C
55 | CC(C)(F)C[C@H](N[C@@H](c1ccc(-c2ccc(S(C)(=O)=O)cc2)cc1)C(F)(F)F)C(=O)NC1(C#N)CC1 | -1.04 °C | 0.18 °C
56 | N[C@@H](CCCCNC(=O)OCc1ccc([N+](=O)[O-])cc1)C(=O)N1CCCC1 | 0.82 °C | -0.09 °C
57 | O=C(O)C1CCCN(CCC=C(c2ccccc2)c2ccccc2)C1 (stereo not drawn) | 0.59 °C | 0.41 °C
58 | COc1ccccc1C(=O)Nc1cc2c(cc1N1CCCCC1)n(C)c(=O)n2C |  | 0.52 °C
59 | CN1CCN(c2ccc3nc(-c4c(N)c5c(F)cccc5[nH]c4=O)[nH]c3c2)CC1 | -0.73 °C | 
60 | COc1cc(Nc2ncc(F)c(Nc3ccc4c(n3)NC(=O)C(C)(C)O4)n2)cc(OC)c1OC | -0.89 °C | 
61 | COc1ccccc1C(=O)Nc1cc2c(cc1N1CCNC[C@H]1C)n(C)c(=O)n2C |  | 0.68 °C
